Data taken from ChEMBL document CHEMBL1144995, “Carbonic anhydrase inhibitors. Inhibition of tumor-associated isozyme IX by halogenosulfanilamide and halogenophenylaminobenzolamide derivatives” (J Med Chem, 2003).

What was measured:
Carbonic anhydrase 9 = Carbonic anhydrase 9 (Homo sapiens, UniProt Q16790)
Description: Inhibition constant determined against catalytic domain of human cloned carbonic anhydrase IX

Carbonic anhydrase 2 = Carbonic anhydrase 2 (Homo sapiens, UniProt P00918)
Description: Inhibition constant (Ki) against human cloned carbonic anhydrase II (CAH)

Carbonic anhydrase 1 = Carbonic anhydrase 1 (Homo sapiens, UniProt P00915)
Description: Inhibition constant determined against human cloned carbonic anhydrase I

Carbonic anhydrase 4 = target: T1, Carbonic anhydrase 4 (Bos taurus, UniProt Q95323)
T1 sequence (Q95323 whole entry): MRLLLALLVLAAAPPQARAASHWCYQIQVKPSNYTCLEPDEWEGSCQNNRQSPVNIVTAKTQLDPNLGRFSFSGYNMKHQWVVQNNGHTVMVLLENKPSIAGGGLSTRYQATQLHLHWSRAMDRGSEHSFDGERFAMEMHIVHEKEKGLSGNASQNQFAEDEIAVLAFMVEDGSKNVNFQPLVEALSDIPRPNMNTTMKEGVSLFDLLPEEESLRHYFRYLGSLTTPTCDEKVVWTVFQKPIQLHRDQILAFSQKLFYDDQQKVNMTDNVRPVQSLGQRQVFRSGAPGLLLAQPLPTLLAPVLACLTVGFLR
Description: Inhibition constant against bovine Carbonic anhydrase IV, isolated from lung microsomes

Carbonic anhydrase 1, sequence (P00915 whole entry): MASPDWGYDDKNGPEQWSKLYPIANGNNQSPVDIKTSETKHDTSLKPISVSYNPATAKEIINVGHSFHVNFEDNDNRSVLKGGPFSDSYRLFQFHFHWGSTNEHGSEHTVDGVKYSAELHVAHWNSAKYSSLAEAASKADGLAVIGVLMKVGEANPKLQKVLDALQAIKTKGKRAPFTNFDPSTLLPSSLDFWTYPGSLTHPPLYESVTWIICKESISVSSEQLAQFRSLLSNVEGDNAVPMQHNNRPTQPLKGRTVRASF

| Compound | Ki (Carbonic anhydrase 9) [µM] | Ki (Carbonic anhydrase 2) [µM] | Ki (Carbonic anhydrase 1) [µM] | Ki (Carbonic anhydrase 4) [µM] |
| --- | --- | --- | --- | --- |
| CC(=O)Nc1ccc(S(=O)(=O)Nc2nnc(S(N)(=O)=O)s2)cc1Br | 0.078 | 0.0015 | 0.005 | 0.0046 |
| CC(=O)Nc1ccc(S(=O)(=O)Nc2nnc(S(N)(=O)=O)s2)cc1Cl | 0.071 | 0.0013 | 0.0054 | 0.0042 |
| CC(=O)Nc1ccc(S(=O)(=O)Nc2nnc(S(N)(=O)=O)s2)cc1F | 0.079 | 0.0012 | 0.0057 | 0.004 |
| CC(=O)Nc1ccc(S(=O)(=O)Nc2nnc(S(N)(=O)=O)s2)cc1 | 0.075 | 0.0031 | 0.0102 | 0.0082 |
| Nc1c(Cl)cc(S(=O)(=O)Nc2nnc(S(N)(=O)=O)s2)cc1Cl | 0.024 | 0.0005 | 0.0011 | 0.0019 |
| Nc1c(F)cc(S(N)(=O)=O)cc1Br | 0.069 | 0.033 | 3.9 | 0.113 |
| CC(=O)Nc1ccc(S(=O)(=O)Nc2nnc(S(N)(=O)=O)s2)cc1I | – | 0.0017 | 0.0052 | 0.0045 |
| CC(=O)Nc1ccc(S(N)(=O)=O)cc1F | 0.213 | 0.029 | 4.2 | 0.105 |
| Nc1c(F)cc(S(=O)(=O)Nc2nnc(S(N)(=O)=O)s2)cc1Br | 0.027 | 0.0002 | 0.001 | 0.0019 |
| Nc1ccc(S(=O)(=O)Nc2nnc(S(N)(=O)=O)s2)cc1I | – | 0.0006 | 0.0021 | 0.0025 |
| Nc1c(Cl)cc(S(=O)(=O)Nc2nnc(S(N)(=O)=O)s2)cc1Br | – | 0.0006 | 0.0013 | 0.002 |
| Nc1c(Br)cc(S(N)(=O)=O)cc1Br | 0.068 | – | – | 0.175 |
| Nc1c(Cl)cc(S(=O)(=O)Nc2nnc(S(N)(=O)=O)s2)cc1I | – | 0.0008 | 0.0016 | 0.0027 |
| Nc1ccc(S(=O)(=O)Nc2nnc(S(N)(=O)=O)s2)cc1Cl | 0.046 | 0.0006 | 0.0025 | 0.0024 |
| CC(=O)Nc1ccc(S(N)(=O)=O)cc1Cl | 0.196 | 0.074 | 6.25 | 0.245 |
| Nc1c(F)cc(S(=O)(=O)Nc2nnc(S(N)(=O)=O)s2)cc1I | 0.021 | 0.0003 | 0.0017 | 0.0021 |

| Compound | Ki (Carbonic anhydrase 9) [µM] | Ki (Carbonic anhydrase 2) [µM] | Ki (Carbonic anhydrase 1) [µM] | Ki (Carbonic anhydrase 4) [µM] |
| --- | --- | --- | --- | --- |
| Nc1c(Br)cc(S(N)(=O)=O)cc1I | – | 0.107 | 12.5 | 0.25 |
| Nc1c(Cl)cc(S(N)(=O)=O)cc1Br | 0.033 | 0.054 | 7.6 | 0.21 |
| CC(=O)Nc1ccc(S(N)(=O)=O)cc1I | 0.209 | 0.047 | 3.3 | 0.115 |
| Nc1c(I)cc(S(N)(=O)=O)cc1I | – | – | 14 | 0.28 |
| Nc1c(I)cc(S(=O)(=O)Nc2nnc(S(N)(=O)=O)s2)cc1I | 0.041 | 0.0009 | – | 0.0023 |
| Nc1c(Cl)cc(S(N)(=O)=O)cc1I | 0.063 | 0.061 | 7.8 | 0.2 |
| Nc1ccc(S(=O)(=O)Nc2nnc(S(N)(=O)=O)s2)cc1F | 0.046 | 0.0008 | 0.0031 | 0.0025 |
| Nc1c(Br)cc(S(=O)(=O)Nc2nnc(S(N)(=O)=O)s2)cc1Br | 0.039 | 0.0005 | 0.001 | 0.0017 |
| CC(=O)Nc1ccc(S(N)(=O)=O)cc1Br | 0.203 | 0.025 | 3.4 | 0.058 |
| Nc1c(F)cc(S(N)(=O)=O)cc1I | 0.034 | 0.029 | 3.7 | 0.125 |
| Nc1c(Cl)cc(S(N)(=O)=O)cc1Cl | 0.027 | 0.05 | 7 | 0.165 |
| Nc1ccc(S(=O)(=O)Nc2nnc(S(N)(=O)=O)s2)cc1Br | 0.047 | 0.0007 | 0.0019 | 0.0024 |
| Nc1c(F)cc(S(N)(=O)=O)cc1Cl | 0.012 | 0.032 | 3.8 | 0.095 |
| Nc1c(F)cc(S(=O)(=O)Nc2nnc(S(N)(=O)=O)s2)cc1Cl | 0.04 | – | 0.0014 | 0.002 |
| Nc1c(Br)cc(S(=O)(=O)Nc2nnc(S(N)(=O)=O)s2)cc1I | – | 0.0006 | 0.0019 | 0.0023 |
